Laboratory results from patent publication US20080188654A1, “Compounds for treatment of inflammation, diabetes and related disorders” (Theracos, Inc., priority 2001, published 2008).
pIC50: −log10 of the molar value.

Tests used:
[1] = tested on: 3T3-L1 differentiated adipocytes; assay: Glucose uptake in 3T3-L1 adipocytes (14C-deoxyglucose); format: cell-based, mouse; conditions: different concentrations, 48 hours; percentage of basal; FIG. 1
3T3-L1 adipocytes = assay: Insulin-stimulated glucose uptake in 3T3-L1 adipocytes; format: cell-based, mouse; conditions: 5 μM, 48 hours; compared to vehicle; FIG. 2
ob/ob mice [2] = assay: Glucose-lowering effect in ob/ob mice; format: in vivo, mouse; conditions: 10 mg/kg daily oral, p<0.05
ob/ob mice [3] = assay: Lipid-lowering effects in ob/ob mice; format: in vivo, mouse; conditions: 10 mg/kg daily oral, day 8, versus vehicle, p<0.05
TNF-alpha [4] = assay: Inhibition of LPS-induced TNF-alpha production in RAW264.7 cells (ELISA); format: cell-based, mouse
IL-1 beta = assay: Inhibition of LPS-induced IL-1 beta production in RAW264.7 cells (ELISA); format: cell-based, mouse
IL-6 = assay: Inhibition of LPS-induced IL-6 production in RAW264.7 cells (ELISA); format: cell-based, mouse
iNOS = assay: Inhibition of LPS-induced iNOS production in RAW264.7 cells (Western blot); format: cell-based, mouse; conditions: 10, 30 or 100 μM; FIG. 8
COX-2 = assay: Inhibition of LPS-induced COX-2 production in RAW264.7 cells (Western blot); format: cell-based, mouse; conditions: LPS-stimulated cells; FIG. 8
COX-1 = COX-1 production in LPS-stimulated RAW264.7 cells (Western blot); format: cell-based, mouse; conditions: FIG. 8
TNF-alpha [5] = assay: Inhibition of LPS-induced TNF-alpha release by human monocytes; format: cell-based; conditions: Monocyte, read-out: Percent Inhibition of TNF-alpha Release
[6] = tested on: PDE4 partially purified from human U-937 promonocytic cells; assay: Inhibition of PDE4 enzyme activity; format: biochemical
[7] = biological target: T1, PDE3 partially purified from human platelets (Homo sapiens, UniProt Q14432); assay: Inhibition of PDE3 enzyme activity; format: biochemical; conditions: read-out: Percent Inhibition of Enzyme Activity
T1 construct: PDE3 partially purified from human platelets were used; from tissue; host or cells: human platelets (partially purified enzyme)
T1 sequence (Q14432 whole entry): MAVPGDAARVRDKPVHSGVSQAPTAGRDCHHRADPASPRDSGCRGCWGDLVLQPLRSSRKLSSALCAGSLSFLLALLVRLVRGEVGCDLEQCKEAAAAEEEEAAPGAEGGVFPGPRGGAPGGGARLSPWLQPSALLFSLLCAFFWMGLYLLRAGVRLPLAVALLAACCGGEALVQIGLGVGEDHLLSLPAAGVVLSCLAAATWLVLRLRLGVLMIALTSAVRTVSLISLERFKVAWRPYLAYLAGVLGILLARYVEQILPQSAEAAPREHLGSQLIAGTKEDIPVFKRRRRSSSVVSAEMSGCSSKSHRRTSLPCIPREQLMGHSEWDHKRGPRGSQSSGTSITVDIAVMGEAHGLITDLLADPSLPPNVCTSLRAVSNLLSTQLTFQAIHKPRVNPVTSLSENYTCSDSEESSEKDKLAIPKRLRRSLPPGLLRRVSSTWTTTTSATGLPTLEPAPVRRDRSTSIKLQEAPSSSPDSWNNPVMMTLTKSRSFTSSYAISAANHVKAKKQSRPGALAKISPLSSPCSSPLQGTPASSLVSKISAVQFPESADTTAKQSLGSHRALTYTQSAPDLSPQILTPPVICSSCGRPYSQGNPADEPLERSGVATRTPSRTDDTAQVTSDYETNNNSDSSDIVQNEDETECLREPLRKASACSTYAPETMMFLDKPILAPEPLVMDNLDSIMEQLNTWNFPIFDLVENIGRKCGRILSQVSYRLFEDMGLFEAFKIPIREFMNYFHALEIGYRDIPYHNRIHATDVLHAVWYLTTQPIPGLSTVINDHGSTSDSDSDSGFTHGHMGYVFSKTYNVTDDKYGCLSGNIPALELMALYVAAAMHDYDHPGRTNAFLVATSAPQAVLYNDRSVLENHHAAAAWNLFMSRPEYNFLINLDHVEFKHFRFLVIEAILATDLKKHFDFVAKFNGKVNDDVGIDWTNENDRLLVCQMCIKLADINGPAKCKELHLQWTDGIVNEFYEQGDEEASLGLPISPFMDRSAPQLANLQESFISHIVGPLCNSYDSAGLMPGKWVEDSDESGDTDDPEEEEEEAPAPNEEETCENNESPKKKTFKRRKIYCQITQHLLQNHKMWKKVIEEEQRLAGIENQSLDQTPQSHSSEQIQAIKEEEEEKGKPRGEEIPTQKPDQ

p44/42 MAP kinase = assay: Inhibition of phosphorylation of p44/42 MAP kinase in RAW 264.7 gamma NO(-) cells (Western blot); format: cell-based, mouse; conditions: for inhibition of LPS-induced phosphorylation of p44/42 MAP kinase: 10 ng/ml LPS
[8] = tested on: mouse mesenteric lymph node cells; assay: Inhibition of anti-CD3/anti-CD28 stimulated lymphocyte proliferation; format: cell-based
DBA/1J mice = assay: Collagen-induced arthritis in mice; format: in vivo, mouse
TNF-alpha [9] = assay: Inhibition of LPS-induced TNF-alpha production in mice; format: in vivo, mouse; conditions: for Percent TNF Production (Mean ± SEM): plasma 1 h after LPS, vehicle = 100%, p < 0.05; for inhibition of LPS-induced TNF-alpha production in mice: 50 or 100 mg/kg oral
[10] = tested on: human elutriated monocytes; assay: Cell viability of human monocytes (MTS/PMS assay); format: cell-based; conditions: 30 μM, 20 h
[11] = high dose, 100 mg/kg oral twice daily 14 days

COC(=O)C(=Cc1cc(OC)cc(OC)c1)c1ccc(Oc2ccc(CCC(=O)NC(N)=O)cc2)cc1 [Compound 1, 3-(3,5-dimethoxyphenyl)-2-{4-[4-(3-oxo-3-ureidopropyl)-phenoxy]-phenyl}-acrylic acid methyl ester]
glucose uptake [1]: dose-dependent increase in glucose uptake | stimulation of glucose uptake by insulin (3T3-L1 adipocytes): enhanced the stimulation of glucose uptake by insulin | decrease in blood glucose levels (ob/ob mice [2]; day 6, versus vehicle): 36% | decrease in blood glucose levels (ob/ob mice [2]; day 8, versus vehicle): 23% | free fatty acids lower (ob/ob mice [3]): 19% | serum triglycerides lower (ob/ob mice [3]): 49% | inhibition of LPS-induced TNF-alpha production (TNF-alpha [4]; 10, 30 or 100 μM, FIG. 5): significantly inhibited | inhibitory effect on TNF-alpha compared with dexamethasone (TNF-alpha [4]; versus 1 μM dexamethasone): approached that seen with dexamethasone | inhibition of LPS-induced IL-1 beta production (IL-1 beta; 10, 30 or 100 μM, FIG. 6): significantly inhibited | inhibition of IL-1 beta compared with dexamethasone (IL-1 beta; versus 1 μM dexamethasone): of the same approximate magnitude as that seen with dexamethasone | inhibition of LPS-induced IL-6 production (IL-6; 10, 30 or 100 μM, FIG. 7): significantly inhibited | inhibitory effect on IL-6 compared with dexamethasone (IL-6; versus 1 μM dexamethasone): greater than that observed with dexamethasone | inhibition of LPS-induced iNOS production (iNOS): dose-dependent inhibition | inhibition of COX-2 production (COX-2): selectively inhibited production of COX-2 | inhibition of COX-1 production (COX-1): not COX-1

COc1cc(/C=C(/C(=O)N(C)C)c2ccc(Oc3ccc(CCC(=O)NC(N)=O)cc3)cc2)cc(OC)c1 [Compound 13, 3-(3,5-dimethoxyphenyl)-N,N-dimethyl-2-{4-[4-(3-oxo-3-ureido-propyl)-phenoxy]-phenyl}-acrylamide]
inhibition at 0.3 µM (TNF-alpha [5]): 15% | inhibition at 1 µM (TNF-alpha [5]): 40% | inhibition at 3 µM (TNF-alpha [5]): 70% | inhibition at 10 µM (TNF-alpha [5]): 78% | inhibition at 30 µM (TNF-alpha [5]): 78% | pIC50 ([6]; PDE4): > 6.00 | Percent Inhibition of Enzyme Activity ([6]; PDE4, 1 μM): 85% | Percent Inhibition of Enzyme Activity ([6]; PDE4, 10 μM): 98% | Percent Inhibition of Enzyme Activity ([6]; PDE4, 30 μM): 102% | inhibition at 1 µM ([7]; PDE3, 1 μM): 20% | inhibition at 10 µM ([7]; PDE3, 10 μM): 52% | inhibition at 30 µM ([7]; PDE3, 30 μM): 55% | inhibition of LPS-induced phosphorylation of p44/42 MAP kinase (p44/42 MAP kinase; 10 μM): not | inhibition of LPS/IFN-gamma induced phosphorylation of p44/42 (p44/42 MAP kinase; 30 μM and 10 μM, LPS (10 ng/ml)/IFN-gamma (10 U/ml)): inhibited LPS/IFN-gamma induced phosphorylation of p44/42 in a dose-dependent manner | inhibition of LPS-induced phosphorylation of p44/42 MAP kinase (p44/42 MAP kinase; 30 μM): inhibited | O.D. (Mean ± SD) ([8]; 10 μM + anti-CD3/anti-CD28 mAbs, 67 h, MTS/PMS, 505 nm): 0.578 ± 0.012 | inhibition at 10 µM ([8]; Mus musculus, Lymphocyte, 10 μM, stimulated by anti-CD3/anti-CD28 monoclonal antibodies): ~50%

COc1cc(/C=C(/C(=O)N(C)C)c2ccc(Oc3ccc(CCC(N)=O)cc3)cc2)cc(OC)c1 [Compound 31, 2-{4-[4-(2-carbamoylethyl)-phenoxy]-phenyl}-3-(3,5-dimethoxyphenyl)-N,N-dimethylacrylamide]
inhibition at 1 µM (TNF-alpha [5]): 51% | inhibition at 3 µM (TNF-alpha [5]): 73% | inhibition at 10 µM (TNF-alpha [5]): 83% | inhibition at 30 µM (TNF-alpha [5]): 86% | arthritis clinical score (severity) (DBA/1J mice; [11]): prevented the increase in severity | histology of hind limbs (DBA/1J mice; [11]): reduction in incidence and severity of pannus formation, inflammation cell infiltration and bone/cartilage damage | histology of hind limbs (DBA/1J mice; low dose, 40 mg/kg oral twice daily 14 days): marked chronic inflammation of synovium with pannus formation and destruction of bone and cartilage | arthritis clinical score (severity) (DBA/1J mice; low dose, 40 mg/kg oral twice daily 14 days, compared with vehicle): no apparent effect | Percent TNF Production (Mean ± SEM) (TNF-alpha [9]; 50 mg/kg oral): 68 ± 11% | Percent TNF Production (Mean ± SEM) (TNF-alpha [9]; 100 mg/kg oral): 53 ± 20% | inhibition of LPS-induced TNF-alpha production in mice (TNF-alpha [9]): significantly inhibited

CCOC(=O)CCc1ccc(Oc2ccc(/C(=C\c3cc(OC)cc(OC)c3)C(=O)N(C)C)cc2)cc1 [Compound 37, 3-(4-{4-[2-(3,5-dimethoxyphenyl)-1-dimethylcarbamoylvinyl]-phenoxy}-phenyl)-propionic acid ethyl ester]
inhibition at 1 µM (TNF-alpha [5]): 17% | inhibition at 3 µM (TNF-alpha [5]): 38% | inhibition at 10 µM (TNF-alpha [5]): 65% | inhibition at 30 µM (TNF-alpha [5]): 78%

COc1cc(/C=C(/C(=O)N(C)C)c2ccc(NC(=O)c3cccc(O)c3)cc2)cc(OC)c1 [Compound 44, N-{4-[2-(3,5-dimethoxyphenyl)-1-dimethylcarbamoylvinyl]-phenyl}-3-hydroxybenzamide]
inhibition at 0.3 µM (TNF-alpha [5]): 32% | inhibition at 3 µM (TNF-alpha [5]): 67% | inhibition at 30 µM (TNF-alpha [5]): 91%

COc1cc(/C=C(/C(=O)N(C)C)c2ccc(O)cc2)cc(OC)c1 [Compound 49, 3-(3,5-dimethoxyphenyl)-2-(4-hydroxyphenyl)-N,N-dimethylacrylamide]
inhibition at 3 µM (TNF-alpha [5]): 14% | inhibition at 10 µM (TNF-alpha [5]): 47% | inhibition at 30 µM (TNF-alpha [5]): 54%

COc1cc(/C=C(/C(=O)N2CCCCC2)c2ccc(Oc3ccc(CCC(=O)NC(N)=O)cc3)cc2)cc(OC)c1 [Compound 51, [3-(4-{4-[2-(3,5-dimethoxyphenyl)-1-(piperidine-1-carbonyl)-vinyl]-phenoxy}-phenyl)-propionyl]-urea]
inhibition at 3 µM (TNF-alpha [5]): 25% | inhibition at 10 µM (TNF-alpha [5]): 57% | Cell viability [10]: * (Cell viability <70%)

CC(=O)NC(=O)CCc1ccc(Oc2ccc(/C(=C\c3ccc(F)cc3)C(=O)N(C)C)cc2)cc1 [Compound 56, 2-{4-[4-(3-acetylamino-3-oxopropyl)-phenoxy]-phenyl}-3-(4-fluorophenyl)-N,N-dimethylacrylamide]
inhibition at 0.3 µM (TNF-alpha [5]): 1% | inhibition at 3 µM (TNF-alpha [5]): 6% | inhibition at 30 µM (TNF-alpha [5]): 54%

COc1cc(/C=C(/C(=O)N(C)C)c2ccc(Oc3ccc(CC(C(N)=O)C(N)=O)cc3)cc2)cc(OC)c1 [Compound 59, 2-(4-{4-[2-(3,5-dimethoxyphenyl)-1-dimethylcarbamoylvinyl]-phenoxy}-benzyl)-malonamide]
inhibition at 0.3 µM (TNF-alpha [5]): 27% | inhibition at 3 µM (TNF-alpha [5]): 69% | inhibition at 30 µM (TNF-alpha [5]): 80%

COc1cc(/C=C(/C(=O)N(C)C)c2ccc(Oc3ccccn3)cc2)cc(OC)c1 [Compound 66, 3-(3,5-dimethoxyphenyl)-N,N-dimethyl-2-[4-(pyridin-2-yloxy)-phenyl]-acrylamide]
inhibition at 0.3 µM (TNF-alpha [5]): 27% | inhibition at 3 µM (TNF-alpha [5]): 53% | inhibition at 30 µM (TNF-alpha [5]): 84%

COc1cc(/C=C(/C(=O)N(C)C)c2ccc(NC(=O)c3ccccc3)cc2)cc(OC)c1 [Compound 67, N-{4-[2-(3,5-dimethoxyphenyl)-1-dimethylcarbamoylvinyl]-phenyl}-benzamide]
inhibition at 0.3 µM (TNF-alpha [5]): 40% | inhibition at 3 µM (TNF-alpha [5]): 62% | inhibition at 30 µM (TNF-alpha [5]): 89%

CCOC(=O)CCc1ccc(Oc2ccc(C(=Cc3ccc4c(c3)OCO4)C(=O)N(C)C)cc2)cc1 [Compound 69, 3-{4-[4-(2-benzo[1,3]dioxol-5-yl-1-dimethylcarbamoylvinyl)-phenoxy]-phenyl}-propionic acid ethyl ester]
inhibition at 0.3 µM (TNF-alpha [5]): 1% | inhibition at 3 µM (TNF-alpha [5]): 22% | inhibition at 30 µM (TNF-alpha [5]): 50%

CN(C)C(=O)/C(=C/c1cccnc1)c1ccc(Oc2ccc(CC(C(N)=O)C(N)=O)cc2)cc1 [Compound 71, 2-{4-[4-(1-dimethylcarbamoyl-2-pyridin-3-ylvinyl)-phenoxy]-benzyl}-malonamide]
inhibition at 0.3 µM (TNF-alpha [5]): 20% | inhibition at 3 µM (TNF-alpha [5]): 47% | inhibition at 30 µM (TNF-alpha [5]): 65%

CN(C)C(=O)/C(=C/c1cccnc1)c1ccc(Oc2ccc(CCC(=O)NC(N)=O)cc2)cc1 [Compound 73, N,N-dimethyl-2-{4-[4-(3-oxo-3-ureidopropyl)-phenoxy]-phenyl}-3-pyridin-3-yl-acrylamide]
inhibition at 0.3 µM (TNF-alpha [5]): 30% | inhibition at 3 µM (TNF-alpha [5]): 62% | inhibition at 30 µM (TNF-alpha [5]): 81%

CN(C)C(=O)/C(=C/c1cccnc1)c1ccc(Oc2ccc(CCC(N)=O)cc2)cc1 [Compound 77, 2-{4-[4-(2-carbamoyl-ethyl)-phenoxy]-phenyl}-N,N-dimethyl-3-pyridin-3-yl-acrylamide]
Percent TNF Production (Mean ± SEM) (TNF-alpha [9]; 50 mg/kg oral): 54 ± 10% | Percent TNF Production (Mean ± SEM) (TNF-alpha [9]; 100 mg/kg oral): 67 ± 20% | inhibition of LPS-induced TNF-alpha production in mice (TNF-alpha [9]): significantly inhibited

CN(Cc1cnc2nc(N)nc(N)c2n1)c1ccc(C(=O)N[C@@H](CCC(=O)O)C(=O)O)cc1 [Methotrexate, methotrexate, reference compound]
Percent TNF Production (Mean ± SEM) (TNF-alpha [9]; 10 mg/kg oral): 61 ± 5%
